Measured values from patent publication US9085603B2, “Progesterone receptor antagonists” (Bayer Intellectual Property GmbH, priority 2010, dated 2015).

Biological target: T1, human progesterone receptor A (Homo sapiens, UniProt P06401)
T1 construct: expressed in transfected cells; host or cells: SK-N-MC human neuroblastoma cells, stably transfected with pRChPR-A-neo and pMMTV-LUC
T1 sequence (P06401 1-769 isoform P06401-2): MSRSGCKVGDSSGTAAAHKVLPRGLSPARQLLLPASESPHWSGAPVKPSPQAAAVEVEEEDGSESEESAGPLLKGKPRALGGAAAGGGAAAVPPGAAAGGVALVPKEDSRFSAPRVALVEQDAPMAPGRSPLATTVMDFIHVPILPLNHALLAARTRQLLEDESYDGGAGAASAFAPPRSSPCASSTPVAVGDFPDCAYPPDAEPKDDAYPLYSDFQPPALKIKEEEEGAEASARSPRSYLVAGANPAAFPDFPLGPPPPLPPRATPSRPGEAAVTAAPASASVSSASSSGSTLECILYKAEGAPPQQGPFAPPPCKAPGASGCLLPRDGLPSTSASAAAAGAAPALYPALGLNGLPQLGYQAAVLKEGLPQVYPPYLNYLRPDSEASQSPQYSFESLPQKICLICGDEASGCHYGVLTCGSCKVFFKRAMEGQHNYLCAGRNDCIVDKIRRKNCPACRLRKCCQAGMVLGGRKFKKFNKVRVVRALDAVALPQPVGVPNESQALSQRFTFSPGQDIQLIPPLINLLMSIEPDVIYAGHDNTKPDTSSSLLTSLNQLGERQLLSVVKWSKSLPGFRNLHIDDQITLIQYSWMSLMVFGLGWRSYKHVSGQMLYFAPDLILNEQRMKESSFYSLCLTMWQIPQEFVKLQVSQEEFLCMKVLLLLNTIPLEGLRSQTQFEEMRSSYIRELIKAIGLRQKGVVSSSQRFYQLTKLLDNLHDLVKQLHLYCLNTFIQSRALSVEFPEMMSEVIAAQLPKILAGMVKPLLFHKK
Assay: Progesterone receptor antagonistic effect in stably transfected SK-N-MC cells, MTV-LUC reporter (PR-A)
Assay type: cell-based
Details: antagonism of 0.1 nmol/l promegestone, luciferase reporter, 24 hours
Protocol: Progesterone Receptor Antagonistic Effect in Stable Transfectants of Human Neuroblastoma Cells (SK-N-MC cells) with the Human Progesterone A or Progesterone B Receptor and a MTV-LUC Reporter Construct
SK-N-MC cells (human neuroblastoma cells), which have been stably transfected with plasmids which express the human progesterone receptor B (pRChPR-B-neo) or the human progesterone receptor A (pRChPR-A-neo) and a reporter construct (pMMTV-LUC), were incubated for 24 hours either in the absence (negative control) or in the presence of increasing amounts of the particular test compound (0.01 nmol/l, 0.1 nmol/l, 1 nmol/l, 10 nmol/l, 100 nmol/l and 1 μmol/l) in order to determine the agonistic efficacy. As a positive control of the reporter gene induction, the cells were treated with the synthetic gestagen promegestone (0.01 nmol/l, 0.1 nmol/l, 1 nmol/l, 10 nmol/l, 100 nmol/l and 1 μmol/l). To determine the antagonistic activity, the cells were treated with 0.1 nmol/l of promegestone and additionally with increasing amounts of the particular test compound (0.01 nmol/l, 0.1 nmol/l, 1 nmol/l, 10 nmol/l, 100 nmol/l and 1 μmol/l). The activity of the reporter gene LUC (LUC=luciferase) was determined in the cell lysates and measured as RLU (relative light units). All measurement values are given as percentage efficacy and as EC50 or IC50 concentrations.

Row | Structure (SMILES) | IC50
1 | C[C@]12C[C@H](c3ccc(CNc4cccc(C(N)=O)c4)cc3)C3=C4CCC(=O)C=C4CC[C@H]3[C@@H]1CC[C@@]2(O)C(F)(F)C(F)(F)F [Example 53, 3-({4-[(11β,17β)-17-Hydroxy-3-oxo-17-(pentafluoroethyl)estra-4,9-dien-11-yl]benzyl}amino)benzamide] | 0.84 nM
2 | C[C@]12C[C@H](c3ccc(CN4CCCC4)cc3)C3=C4CCC(=O)C=C4CC[C@H]3[C@@H]1CC[C@@]2(O)C(F)(F)C(F)(F)F [Example 46, (11β,17β)-17-Hydroxy-17-(pentafluoroethyl)-11-[4-(pyrrolidin-1-ylmethyl)phenyl]estra-4,9-dien-3-one] | 37.4 nM
3 | CN(Cc1ccc([C@H]2C[C@@]3(C)[C@@H](CC[C@@]3(O)C(F)(F)C(F)(F)F)[C@@H]3CCC4=CC(=O)CCC4=C32)cc1)c1ccccc1 [Example 48, (11β,17β)-17-Hydroxy-11-(4-{[methyl(phenyl)amino]methyl}phenyl)-17-(pentafluoroethyl)estra-4,9-dien-3-one] | 1.28 nM
4 | C[C@]12C[C@H](c3ccc(CNc4ccccc4C(N)=O)cc3)C3=C4CCC(=O)C=C4CCC3C1CC[C@@]2(O)C(F)(F)C(F)(F)F (stereo partly drawn) [Example 49, 2-({4-[(11β,17β)-17-Hydroxy-3-oxo-17-(pentafluoroethyl)estra-4,9-dien-11-yl]benzyl}arnino)benzamide] | 1.29 nM
5 | C[C@]12C[C@H](c3ccc(CNc4cccnc4)cc3)C3=C4CCC(=O)C=C4CC[C@H]3[C@@H]1CC[C@@]2(O)C(F)(F)C(F)(F)F [Example 19, (11β,17β)-17-Hydroxy-17-(pentafluoroethyl)-11-{4-[(pyridin-3-ylamino)methyl]phenyl}estra-4,9-dien-3-one] | 0.94 nM

The remaining compounds from weak to strong by IC50, led by results:

Row | IC50 | Structure (SMILES)
6 | 33.7 nM | C[C@]12C[C@H](c3ccc(CN4CCN(CCN5CCCC5)CC4)cc3)C3=C4CCC(=O)C=C4CC[C@H]3[C@@H]1CC[C@@]2(O)C(F)(F)C(F)(F)F [Example 36, (11β,17β)-17-Hydroxy-17-(pentafluoroethyl)-11-[4-({4-[2-(pyrrolidin-1-yl)ethyl]piperazin-1-yl}methyl)phenyl]estra-4,9-dien-3-one]
7 | 5.57 nM | CN(CCc1ccccc1)Cc1ccc([C@H]2C[C@@]3(C)[C@@H](CC[C@@]3(O)C(F)(F)C(F)(F)F)[C@@H]3CCC4=CC(=O)CCC4=C32)cc1 [Example 33, (11β,17β)-17-Hydroxy-11-(4-{[methyl(2-phenylethyl)amino]methyl}phenyl)-17-(pentafluoroethyl)estra-4,9-dien-3-one]
8 | 4.65 nM | CN(Cc1ccncc1)Cc1ccc([C@H]2C[C@@]3(C)[C@@H](CC[C@@]3(O)C(F)(F)C(F)(F)F)[C@@H]3CCC4=CC(=O)CCC4=C32)cc1 [Example 26, (11β,17β)-17-Hydroxy-11-(4-{[methyl(pyridin-4-ylmethyl)amino]methyl}phenyl)-17-(pentafluoroethyl)estra-4,9-dien-3-one]
9 | 4.52 nM | C[C@]12C[C@H](c3ccc(CN4CCN(Cc5ccccc5)CC4)cc3)C3=C4CCC(=O)C=C4CCC3C1CC[C@@]2(O)C(F)(F)C(F)(F)F (stereo partly drawn) [Example 31, (11β,17β)-11-{4-[(4-Benzylpiperazin-1-yl)methyl]phenyl}-17-hydroxy-17-(pentafluoroethyl)estra-4,9-dien-3-one]
10 | 2.35 nM | C[C@]12C[C@H](c3ccc(CN4CCc5ccccc5C4)cc3)C3=C4CCC(=O)C=C4CCC3C1CC[C@@]2(O)C(F)(F)C(F)(F)F (stereo partly drawn) [Example 30, (11β,17β)-11-[4-(3,4-Dihydroisoquinolin-2(1H)-ylmethyl)phenyl]-17-hydroxy-17-(pentafluoroethyl)estra-4,9-dien-3-one]
11 | 1.64 nM | C[C@]12C[C@H](c3ccc(CNc4ccccc4)cc3)C3=C4CCC(=O)C=C4CCC3C1CC[C@@]2(O)C(F)(F)C(F)(F)F (stereo partly drawn) [Example 20, (11β,17β)-11-[4-(Anilinomethyl)phenyl]-17-hydroxy-17-(pentafluoroethyl)estra-4,9-dien-3-one]
